From patent US10047104B2, “Bicyclic heterocyclyl derivatives as IRAK4 inhibitors” (Aurigene Discovery Technologies Limited, priority 2014, dated 2018)
Structures can show the parent of a compound that is named as a salt.

Molecular target: T1, recombinant IRAK-4 kinase (Homo sapiens, UniProt Q9NWZ3)
T1 construct: purchased Millipore, USA
T1 sequence (Q9NWZ3 1-460): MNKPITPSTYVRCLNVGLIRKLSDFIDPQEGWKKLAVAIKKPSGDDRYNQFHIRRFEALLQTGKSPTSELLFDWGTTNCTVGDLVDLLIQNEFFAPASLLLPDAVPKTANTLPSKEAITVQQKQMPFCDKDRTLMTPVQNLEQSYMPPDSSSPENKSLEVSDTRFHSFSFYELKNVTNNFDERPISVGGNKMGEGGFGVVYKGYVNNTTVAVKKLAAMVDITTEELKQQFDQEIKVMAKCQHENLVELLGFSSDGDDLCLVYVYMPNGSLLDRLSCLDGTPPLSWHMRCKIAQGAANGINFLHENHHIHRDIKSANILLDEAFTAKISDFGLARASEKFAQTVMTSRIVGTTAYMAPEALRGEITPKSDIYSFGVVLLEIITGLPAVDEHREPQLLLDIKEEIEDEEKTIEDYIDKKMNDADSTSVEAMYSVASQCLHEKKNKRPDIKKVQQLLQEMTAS
Assay: IRAK-4 Biochemical Assay (TR-FRET)
Details: 5 ng IRAK-4 kinase, 100 nM Biotin Histone H3, 20 μM ATP, 30 minutes pre-incubation, read-out: IC50 values for IRAK4 activity
Protocol: Compounds were tested for their potential to inhibit IRAK-4 enzyme in a TR-FRET assay using recombinant IRAK-4 kinase from Millipore, USA. The assay buffer was 50 mM Tris-HCl pH 7.5, 20 mM MgCl2, 1 mM EGTA, 2 mM DTT, 3 mM MnCl2 and 0.01% Tween20. 5 ng of IRAK-4 kinase was used for the assay. After pre-incubation of enzyme with test compound for 30 minutes at room temperature, a substrate mix containing 100 nM Biotin Histone H3 (Millipore, USA) and 20 μM ATP (Sigma, USA) was added and the reaction was incubated for 30 minutes. Post incubation, the reaction was stopped by the addition of stop mix containing 40 mM EDTA, 1 nM of Europium-Anti-Phospho-Histone H3 (Ser10) antibody (Perkin Elmer, USA) and 20 nM Sure Light Allophycocyanin-Streptavidin (Perkin Elmer, USA).

Row | IC50 [nM] | SMILES
1 | < 50 | Cc1cc(-c2nc(C(=O)Nc3cc4sc(N5CCOCC5)nc4nc3N3CCC(O)CC3)co2)ccn1 [Example 84, N-(5-(4-hydroxypiperidin-1-yl)-2-morpholinothiazolo[4,5-b]pyridin-6-yl)-2-(2-methylpyridin-4-yl)oxazole-4-carboxamide]
2 | < 50 | Cc1cc(-c2nc(C(=O)Nc3cc4sc(N5CCOCC5)nc4nc3N3CCCCC3)co2)ccn1 [Example 20, 2-(2-methylpyridin-4-yl)-N-(2-morpholino-5-(piperidin-1-yl)thiazolo[4,5-b]pyridin-6-yl)oxazole-4-carboxamide]
3 | 50 to 100 | Cn1cc(-c2cccc(C(=O)Nc3cc4oc(N5CCCCC5)nc4nc3N3CCCCC3)n2)cn1 [Example 9, N-(2,5-di(piperidin-1-yl)oxazolo[4,5-b]pyridin-6-yl)-6-(1-methyl-1H-pyrazol-4-yl)picolinamide]
4 | < 50 | Cc1cc(-c2ccc(C(=O)Nc3cc4sc(N5CCOCC5)nc4nc3N3CCCCC3)o2)ccn1 [Example 90, 5-(2-methylpyridin-4-yl)-N-(2-morpholino-5-(piperidin-1-yl)thiazolo[4,5-b]pyridin-6-yl)furan-2-carboxamide]
5 | < 50 | Cn1cc(-c2cccc(C(=O)Nc3cc4sc(N5CCCCC5)nc4nc3N3CCCCC3)n2)cn1 [Example 50, N-(2,5-di(piperidin-1-yl)thiazolo[4,5-b]pyridin-6-yl)-6-(1-methyl-1H-pyrazol-4-yl)picolinamide hydrochloride]
6 | < 50 | O=C(Nc1cc2sc(N3CCOCC3)nc2nc1N1CCCCC1)c1cccc(-c2cn[nH]c2)n1 [Example 21, N-(2-morpholino-5-(piperidin-1-yl)thiazolo[4,5-b]pyridin-6-yl)-6-(1H-pyrazol-4-yl)picolinamide]
7 | > 100 | O=C(Nc1cc2oc(N3CCCCC3)nc2nc1N1CCCCC1)c1coc(-c2ccc(O)nc2)n1 [Example 30, N-(2,5-di(piperidin-1-yl)oxazolo[4,5-b]pyridin-6-yl)-2-(6-hydroxypyridin-3-yl)oxazole-4-carboxamide]
8 | < 50 | Cc1cc(-c2nc(C(=O)Nc3cc4sc(N5CCOCC5)nc4nc3N3CCC(F)CC3)co2)ccn1 [Example 98, N-(5-(4-fluoropiperidin-1-yl)-2-morpholinothiazolo[4,5-b]pyridin-6-yl)-2-(2-methylpyridin-4-yl)oxazole-4-carboxamide]
9 | < 50 | COc1ccc(-c2nc(C(=O)Nc3cc4sc(N5CCOCC5)nc4nc3N3CC[C@@H](O)C3)co2)cn1 [Example 78, (R)—N-(5-(3-hydroxypyrrolidin-1-yl)-2-morpholinothiazolo[4,5-b]pyridin-6-yl)-2-(6-methoxypyridin-3-yl)oxazole-4-carboxamide]
10 | 50 to 100 | O=C(Nc1cc2sc(N3CCOCC3)nc2nc1N1CCC1)c1cccc(N2CC[C@H](O)C2)n1 [Example 79, (S)—N-(5-(azetidin-1-yl)-2-morpholinothiazolo[4,5-b]pyridin-6-yl)-6-(3-hydroxypyrrolidin-1-yl)picolinamide]
11 | < 50 | COc1ccc(-c2nc(C(=O)Nc3cc4oc(N5CCCCC5)nc4nc3N3CCCCC3)co2)cn1 [Example 26, N-(2,5-di(piperidin-1-yl)oxazolo[4,5-b]pyridin-6-yl)-2-(6-methoxypyridin-3-yl)oxazole-4-carboxamide]
12 | < 50 | Cc1cc(-c2nc(C(=O)Nc3cc4sc(N5CCOCC5)nc4nc3N3CCC[C@H](F)C3)co2)ccn1 [Example 59, (S)—N-(5-(3-fluoropiperidin-1-yl)-2-morpholinothiazolo[4,5-b]pyridin-6-yl)-2-(2-methylpyridin-4-yl)oxazole-4-carboxamide]
13 | < 50 | Cc1cc(-c2nc(C(=O)Nc3cc4sc(N5CCCCC5)nc4nc3N3CCCC3)co2)ccn1 [Example 88, 2-(2-methylpyridin-4-yl)-N-(2-(piperidin-1-yl)-5-(pyrrolidin-1-yl)thiazolo[4,5-b]pyridin-6-yl)oxazole-4-carboxamide]
14 | > 100 | Cc1cc(-c2nc(C(=O)Nc3cc4oc(N5CCCC5)nc4nc3N3CCCCC3)co2)ccn1 [Example 48, 2-(2-methylpyridin-4-yl)-N-(5-(piperidin-1-yl)-2-(pyrrolidin-1-yl)oxazolo[4,5-b]pyridin-6-yl)oxazole-4-carboxamide hydrochloride]
15 | < 50 | Cc1cnccc1-c1nc(C(=O)Nc2cc3sc(N4CCOCC4)nc3nc2N2CCCCC2)co1 [Example 61, 2-(3-methylpyridin-4-yl)-N-(2-morpholino-5-(piperidin-1-yl)thiazolo[4,5-b]pyridin-6-yl)oxazole-4-carboxamide]
16 | < 50 | Cc1ncccc1-c1nc(C(=O)Nc2cc3oc(N4CCOCC4)nc3nc2N2CCCCC2)co1 [Example 32, 2-(2-methylpyridin-3-yl)-N-(2-morpholino-5-(piperidin-1-yl)oxazolo[4,5-b]pyridin-6-yl)oxazole-4-carboxamide]
17 | < 50 | O=C(Nc1cc2sc(N3CCOCC3)nc2nc1N1CCCCC1)c1cccc(N2CC[C@H](O)C2)n1 [Example 63, (S)-6-(3-hydroxypyrrolidin-1-yl)-N-(2-morpholino-5-(piperidin-1-yl)thiazolo[4,5-b]pyridin-6-yl)picolinamide]
18 | > 100 | O=C(Nc1cnc2nc(N3CCOCC3)sc2c1)c1cccc(-c2cn[nH]c2)n1 [Example 17, N-(2-morpholinothiazolo[4,5-b]pyridin-6-yl)-6-(1H-pyrazol-4-yl)picolinamide]
19 | < 50 | Cc1cc(-c2nc(C(=O)Nc3cc4sc(N5CCCC(O)C5)nc4nc3N3CCC(N)CC3)co2)ccn1 (stereo not drawn) [Example 134, N-(5-(4-aminopiperidin-1-yl)-2-(3-hydroxypiperidin-1-yl)thiazolo[4,5-b]pyridin-6-yl)-2-(2-methylpyridin-4-yl)oxazole-4-carboxamide hydrochloride]
20 | < 50 | Cc1cc(-c2nc(C(=O)Nc3cc4oc(N5CCCCC5)nc4nc3N3CCCCC3)co2)ccn1 [Example 5, N-(2,5-di(piperidin-1-yl)oxazolo[4,5-b]pyridin-6-yl)-2-(2-methylpyridin-4-yl)oxazole-4-carboxamide]
21 | < 50 | Nc1cc(-c2nc(C(=O)Nc3cc4sc(N5CCOCC5)nc4nc3N3CCC(F)CC3)co2)ccn1 [Example 131, 2-(2-aminopyridin-4-yl)-N-(5-(4-fluoropiperidin-1-yl)-2-morpholinothiazolo[4,5-b]pyridin-6-yl)oxazole-4-carboxamide hydrochloride]
22 | < 50 | Cc1cc(-c2nc(C(=O)Nc3cc4sc(N5CCOCC5)nc4nc3N3CCC[C@@H](O)C3)co2)ccn1 [Example 94, (R)—N-(5-(3-hydroxypiperidin-1-yl)-2-morpholinothiazolo[4,5-b]pyridin-6-yl)-2-(2-methylpyridin-4-yl)oxazole-4-carboxamide]
23 | < 50 | Cc1cc(-c2nc(C(=O)Nc3cc4sc(N5C[C@@H](C)O[C@@H](C)C5)nc4nc3N3CCCCC3)co2)ccn1 [Example 53, N-(2-((2S,6R)-2,6-dimethylmorpholino)-5-(piperidin-1-yl)thiazolo[4,5-b]pyridin-6-yl)-2-(2-methylpyridin-4-yl)oxazole-4-carboxamide]
24 | < 50 | Cc1cc(-c2ccc(C(=O)Nc3cc4sc(N5CCOCC5)nc4nc3N3CCCC(F)C3)o2)ccn1 (stereo not drawn) [Example 102, N-(5-(3-fluoropiperidin-1-yl)-2-morpholinothiazolo[4,5-b]pyridin-6-yl)-5-(2-methylpyridin-4-yl)furan-2-carboxamide]
